Results: BindingDB's records for doi:10.1021/jm00028a008 (1994)

Biological target: Oxytocin receptor (Cavia porcellus)
Assay: Inhibition of radioligand [3H]OT binding to oxytocin receptor (OT) in guinea pig myometrium membrane

Compound | Kd
CCOc1ccc(C[C@H]2NC(=O)CC3(CCCCC3)SSC[C@@H](C(=O)N(C)CC(=O)N[C@@H](CCCN=C(N)N)C(=O)NCC(N)=O)NC(=O)[C@H](CC(N)=O)NC(=O)[C@H](CCC(N)=O)NC(=O)[C@H](Cc3ccccc3)NC2=O)cc1 [[Mca1,D-Tyr(OEt)2,Sar7]AVP] | 21 nM
CCOc1ccc(C[C@H]2NC(=O)CC3(CCCCC3)SSC[C@@H](C(=O)N(C)CC(=O)N[C@@H](CCCN=C(N)N)C(=O)NCC(N)=O)NC(=O)[C@H](CC(N)=O)NC(=O)[C@H](CCC(N)=O)NC(=O)[C@H]([C@@H](C)CC)NC2=O)cc1 [[Mpa1,D-Tyr(OEt)2,Sar7]AVT] | 15 nM
CC[C@H](C)[C@@H]1NC(=O)[C@@H](Cc2ccc(OC)cc2)NC(=O)CC2(CCCCC2)SSC[C@@H](C(=O)N(C)CC(=O)N[C@@H](CCCN=C(N)N)C(=O)NCC(N)=O)NC(=O)[C@H](CC(N)=O)NC(=O)[C@H](CCC(N)=O)NC1=O [[Mca1,D-Tyr(OMe)2,Sar7]AVT] | 18 nM
CN(CC(=O)N[C@@H](CCCNC(=N)N)C(=O)NCC(N)=O)C(=O)[C@@H]1CSSC2(CCCCC2)CC(=O)N[C@@H](Cc2ccccc2)C(=O)N[C@@H](Cc2ccccc2)C(=O)N[C@@H](CCC(N)=O)C(=O)N[C@@H](CC(N)=O)C(=O)N1 [[Mca1,D-Phe2,Sar7]AVP] | 7 nM
